Series [1] relates to hiPSCs differentiating into cardiomyocyte-like cells. Kind of series: ReproTracker cardiomyocyte differentiation assay. Here is the method: (§1) Prior to differentiation, the cells were harvested and dissociated into single cells using Gibco™ TrypLE™ Select (ThermoFisher Scientific; Bleiswijk, Netherlands) for 5 min at 37 °C. Cells were seeded in Matrigel™-coated 24-well plates (ThermoFisher Scientific) in mTeSR™1 containing RevitaCell™ Supplement (ThermoFisher Scientific). […] The cells were cultured in this medium until D3. From D3 until the end of the differentiation protocol (D13) (one-step protocol), cells were cultured in N2B27 medium without ROCK inhibitor or LDN193189. In the case of the replating protocol, cells were replated at D7 and grown in the same medium until day 13. At the end of the differentiation, morphology of the cells was assessed using an Operetta CLS (Revvity) instrument. The expected morphology for each of the lineages, to ensure data acceptance and correct differentiations, is further described in Section 2.9 of the methods section. The trilineage differentiation was replicated in 96-well plates (ThermoFisher Scientific and Revvity Phenoplate) using the same differentiation protocols with an adapted number of cells for the seeding. And termination at D14.
(§2) Cells were harvested, and total RNA was isolated using the Maxwell® RSC simply RNA Cells Kit (cat. no.: #AS1390; Promega) on a Maxwell automated purification instrument (Maxwell RSC 48; Promega). […] Each individual primer was paired with its corresponding fluorophore and quencher and adjusted accordingly depending on gene abundance. Primer and probe sequences are described in Supplementary Table S1.
(§3) Data acceptance was based on the appropriate expression of the assessed biomarker genes in the differentiated populations, at appropriate times during differentiation. Failure to observe the expected temporal expression of key, lineage-specific biomarkers, during the cell fate choices associated with each differentiation protocol, would result in the experiment being invalidated.
(§4) To follow morphological changes throughout the hepatocyte and neural differentiation protocol, brightfield images of the cells were acquired after each medium refresh using an iRiS digital cell imaging microscope (Logos Biosystems) or an Operetta CLS (Revvity) instrument. Images were scored based on visual assessment. Cardiac contractability of cardiomyocytes was evaluated visually using an iRiS digital cell imaging microscope (Logos Biosystems).
(§5) Morphologically, cardiomyocytes are expected to group in fiber-like 3D structures that distribute throughout the entire plate. Aside from morphology, an additional criterion for cardiomyocyte differentiation in each experimental setup is for the contracting mature cardiomyocyte cultures exposed to solvent controls, to reach 75%. […] Neural rosettes are recognized by well-defined cell boundaries and multi-layered cultures. Functional/morphological assessment was completed independently from biomarker data analyses. Morphology scores were confirmed by a second person. Failure to observe the anticipated cell morphology/functionality throughout differentiation would result in invalidation of the experiment. Disruption in the morphology of cardiomyocytes is described as a lack of 3D-fibre-like structures in the cultures as well as a clear lack of contractions. Morphologically aberrant hepatocytes are characterized by a lack of polygonal structures with smaller cytoplasm that in the control cultures and the formation of dark cell-dense structures, commonly indicative of clumps of dead cells with big empty spaces between cell colonies.

The subject of series [2] is hiPSCs differentiating into hepatocyte-like cells. Kind of series: ReproTracker hepatocyte differentiation assay. Here is the method:
as §1, §2, §3, §4, §5

The subject of series [3] is hiPSCs differentiating into neural rosette-like cells. On the procedure:
as §1, §2, §3, §4, §5

For series [4] the following is noted: read-out: Human therapeutic cmax, Table 1 (R3 I (2021), Schulz et al. (2020) and others); cited from earlier work.
In series [5] the test system is undifferentiated hiPSCs. Kind of series: Concentration-range selection and cytotoxicity assessment (AlamarBlue). Conditions: lowest concentration that induced a maximum of 20% cytotoxicity in hiPSCs, 7 days.
Procedure: In short, hiPSCs were exposed to 20 consecutive concentrations of the test compounds using 1 mM or the maximum soluble concentration as the top concentration. Test compounds were added to the medium prior to the refreshes at D0 and D3. Cytotoxicity was estimated at D7; upon completion of the experiments, cells were incubated with resazurin solution (0.01 mg/mL in PBS) and measured absorbance (excitation 530 nm and emission 590 nm). Results were normalized against vehicle controls (0.1% v/v DMSO).
All compounds were tested at five consecutive concentrations in two-fold dilution steps. The top concentration was determined as the lowest concentration that induced a maximum of 20% cytotoxicity in the concentration range finding experiments. Compounds were then diluted 2-fold using serial dilutions.
Data acceptance for dose-range finding experiments was based on the response to positive and negative assay controls, and compound solubility and cytotoxicity. […] Concentrations of compound(s) inducing cytotoxicity and therefore reducing cell survival below 80% were excluded from further testing in differentiation assays.
Thus, to determine cytotoxicity of the test compounds, undifferentiated hiPSCs were exposed to 20 consecutive concentrations at 2-fold dilutions for 7 days. The lowest concentration that induced a maximum of 20% cytotoxicity in the concentration range finding experiment was applied as top concentration for the differentiation experiments.
Series [6] concerns hiPSCs trilineage differentiation (cardiomyocytes, hepatocytes, neural rosette-like cells). Kind of series: ReproTracker trilineage differentiation, overall teratogenicity prediction. The conditions noted are these: lowest tested concentration with significant decrease of at least one biomarker, trilineage assay; 'N.d. up to x' given as > x.
Source text: (§6) In ReproTracker, teratogenicity prediction of test compounds is based on a Weight of Evidence (WoE) approach, which considers both the significant decrease in biomarker expression and the morphological/functional changes following exposure to test compounds throughout differentiation assays.
(§7) This threshold, for any given biomarker, is defined as the average minus one time the standard deviation (SD) of the biomarker expression levels in solvent-exposed control cultures throughout the experiment. Reduced expression of the selected biomarkers below the set threshold in a concentration-dependent manner, upon exposure to a minimum of 2 consecutive non-cytotoxic concentrations would be considered significant (noted as +). A decrease in expression below the threshold without a clear dose-response would lead to an equivocal classification (noted as (+)). An increase in expression or a lack of response would be considered negative (noted as -). Disruption of morphology/functionality of the cultures upon compound exposure at the two highest tested concentrations in all biological replicates is considered as a morphological disruption (noted as +). Absence of significant effects results in a negative score (noted as -).
(§8) For each differentiation assay, the expression of two biomarkers and a morphological/functional read-out are considered. In the hepatocyte and cardiomyocyte differentiation, FOXA2 and BMP4 are considered germ-layer-specific biomarkers, while AFP and MYH6 are considered cell-specific biomarkers, respectively. When applying the WoE approach, the cell-specific biomarkers in hepatocyte and cardiomyocyte differentiation are given higher weight compared to the germ-layer specific biomarkers and morphology/functionality. For the neural differentiation, both PAX6 and NESTIN are given equal weight as they are considered cell-specific markers. In this case, both biomarkers are given higher weight than the morphological read-out.
(§9) Every measurement/observation is assigned a score (positive, negative, or equivocal). […] In the ReproTracker assay, a compound is identified as a teratogen if it receives a positive score in at least one of the trilineage differentiation assays (cardiomyocyte, hepatocyte, or neural differentiation). […] If neither biomarker expression levels nor morphology/functionality are affected in any of the differentiation assays, the response is considered negative.
In series [7] the test system is hiPSCs differentiating into neural rosette-like cells. Kind of series: Neural rosette differentiation, replating protocol, PAX6/NESTIN immunostaining. The format is cell-based, human. Conditions: for NESTIN localization: D13; for PAX6 protein levels: D13, non-cytotoxic concentrations; for NESTIN protein levels: D13, tacrolimus: highest tested concentration. Here is the method: as §1
For neural rosette-like cells’ imaging, cells were washed with PBS and subsequently, cells were fixed using 4% paraformaldehyde in PBS. Permeabilization was performed using 0.1% Triton-X in PBS for 10 min at room temperature. Cells were blocked using 10% donkey serum diluted in PBS +0.1% Tween20 for 10 more minutes. Incubation with primary antibody overnight at 4 °C was performed to stain the cells. The cells were washed 3 times with PBS +0.1% Tween20 and incubated with a secondary antibody in PBS for 1 h at room temperature. Cellular nuclei were stained using Hoechst H33342 (CAS# […], Sigma Aldrich in a 1:5000 dilution). Imaging was done using an Operetta CLS (Revvity) instrument. Primary and secondary antibodies’ concentrations are described in Supplementary Table S2.
To quantify PAX6-and NESTIN-positive cells, Hoechst-stained nuclei were selected based on their fluorescent signal above the background. Cells were also excluded if touching the edge of the fields of view. Also, size exclusion was applied to avoid clustered nuclei being counted as single objects. Fluorescence measurements of PAX6 were performed within the defined nuclei and intracellularly for NESTIN. Then, a minimal fluorescence threshold was defined, resulting in the selection of PAX6-positive cells and NESTIN-positive cells. Finally, the percentages of PAX6-and NESTIN-positive cells were calculated using Revvity Harmony™ Software.
The compounds were tested in both the replating and the one-step protocols. Due to the nature of the protocols, teratogenicity prediction of the compounds was performed based on quantification of PAX6 and NESTIN-positive cells at D13 in the replating protocol or on a significant reduction in the biomarker gene expression at D7 and D13, as well as qualitative morphological analysis at D13 in the one-step protocol.

For series [8], the system named is hiPSCs trilineage differentiation (cardiomyocytes, hepatocytes, neural rosette-like cells). Conditions: human.
Source text: as §6, §7, §8, §9
Series [9] has as its system hiPSCs differentiating into cardiomyocyte-like cells. Conditions: lineage call; footnote b: previously published data; ref Jamalpoor et al., 2022; cited from earlier work.
Series [10] relates to hiPSCs differentiating into hepatocyte-like cells. The conditions noted are these: lineage call; footnote b: previously published data; ref Jamalpoor et al., 2022; cited from earlier work.
The test system of series [11] is undifferentiated hiPSCs. More on the design: method as in Jamalpoor et al., 2022. The conditions noted are these: lowest concentration that induced a maximum of 20% cytotoxicity in hiPSCs; dose-range finding previously published; ref Jamalpoor et al., 2022; cited from earlier work.

Read-outs that look alike come from different tables or passages of the source.

`O=c1[nH]cc(F)c(=O)[nH]1` [5-Fluorouracil]: the “ReproTracker results Cardiomyocyte-like cells” value in series [1] is “Negative”. Moreover, in [2], the “ReproTracker results Hepatocyte-like cells” value is “Negative”. The “ReproTracker results Neural rosette-like cells” value in series [3] was “Negative”. Also, the Cmax in series [4] was 400 to 2300 nM. Besides, the “top concentration for the differentiation experiments” value in the series with undifferentiated hiPSCs [5] is reported as 1 µM. In addition, the “ReproTracker results LOAEL” value in series [6] is recorded as “N.d. up to 1.3 µM”.

For `CC1=C(/C=C/C(C)=C/C=C/C(C)=C/C(=O)O)C(C)(C)CCC1` [Tretinoin (Retinoic acid)], the “ReproTracker results Cardiomyocyte-like cells” value in [1] is “Positive”. In addition, in series [2], the “ReproTracker results Hepatocyte-like cells” value is “Positive”. Further, in series [3], the “NESTIN gene expression at D7” value is reported as “increased”, the “NESTIN gene expression at D13” value is listed as “downregulated”, the OTX2 gene expression entry is “downregulation” and the “PAX6 gene expression at D7” value is “downregulation”. Further, in series [3], the “PAX6 gene expression at D13” value was “downregulation”, the “ReproTracker results Neural rosette-like cells” value is recorded as “Positive” and the “morphology of neural rosette-like cells” value is listed as “disrupted”. The “effect at the highest tested concentration in the replating protocol” value in series [7] (5 µM) is on record as “complete cell death”. In series [7], the NESTIN localization result is “disrupted”, the PAX6 protein levels entry is recorded as “significantly decreased” and the NESTIN protein levels result was “increasing”. In addition, in series [8], the “LOAEL compared with respective human therapeutic Cmax” value is recorded as “equal to or below” and the “ReproTracker results LOAEL” value is at most 0.3 µM. Also, in series [4], the Cmax is 1300 nM. For the same compound, the “top concentration for the differentiation experiments” value in the series with undifferentiated hiPSCs [5] was 5 µM.

Turning to `N[C@@H](CC(=O)N1CCn2c(nnc2C(F)(F)F)C1)Cc1cc(F)c(F)cc1F` [Sitagliptin], in [3], the “ReproTracker results Neural rosette-like cells” value is reported as “Negative”. In addition, the “ReproTracker results Cardiomyocyte-like cells” value in series [9] was “Negative”. Further, the “ReproTracker results Hepatocyte-like cells” value in series [10] is on record as “Negative”. Besides, the Cmax in series [4] is 100 to 900 nM. Moreover, the “ReproTracker results LOAEL” value in series [6] is “N.d. up to 1000 µM”.

With `CC(O)CO` (stereo not drawn) [1,2-propylene glycol], the “ReproTracker results Neural rosette-like cells” value in [3] is given as “Negative”. In series [9], the “ReproTracker results Cardiomyocyte-like cells” value is “Negative”. The “ReproTracker results Hepatocyte-like cells” value in series [10] is “Negative”. The Cmax in series [4] is 300 to 3100 nM. The “ReproTracker results LOAEL” value in [6] was “N.d. up to 1000 µM”.

Consider `C=CC[C@@H]1/C=C(\C)C[C@H](C)C[C@H](OC)[C@H]2O[C@@](O)(C(=O)C(=O)N3CCCC[C@H]3C(=O)O[C@H](/C(C)=C/[C@@H]3CC[C@@H](O)[C@H](OC)C3)[C@H](C)[C@@H](O)CC1=O)[C@H](C)C[C@@H]2OC` [Tacrolimus], for which the “ReproTracker results Cardiomyocyte-like cells” value in series [1] is “Equivocal”. Further, the “ReproTracker results Hepatocyte-like cells” value in [2] is reported as “Positive”. In [3], the “NESTIN gene expression at D13” value is listed as “downregulated”, the NGN2 gene expression entry is listed as “no significant effect”, the OTX2 gene expression result is recorded as “no significant effect” and the “PAX6 gene expression at D7” value was “downregulation”. Moreover, in [3], the “PAX6 gene expression at D13” value is “increasing”, the “ReproTracker results Neural rosette-like cells” value is reported as “Positive”, the SOX1 gene expression entry is “no significant effect” and the “morphology of neural rosette-like cells” value is recorded as “disrupted”. Moreover, in series [7], the NESTIN localization entry is on record as “affecting”, the PAX6 protein levels entry was “concentration-dependent decrease” and the NESTIN protein levels entry is listed as “increased”. For the same compound, in [8], the “LOAEL compared with respective human therapeutic Cmax” value was “higher” and the “ReproTracker results LOAEL” value is given as at most 0.2 µM. In addition, the “top concentration for the differentiation experiments” value in the series with undifferentiated hiPSCs [11] is reported as 7.81 µM. Moreover, in series [4], the Cmax is 0.6 to 30 nM.

Take `O=C1NS(=O)(=O)c2ccccc21` [Saccharin]: the “ReproTracker results Cardiomyocyte-like cells” value in series [1] is “Negative”. Moreover, the “ReproTracker results Hepatocyte-like cells” value in [2] is on record as “Negative”. For the same compound, in series [3], the “NESTIN gene expression at D13” value was “no effect”, the “PAX6 gene expression at D7” value is recorded as “no effect”, the “ReproTracker results Neural rosette-like cells” value is “Negative” and the “morphology of neural rosette-like cells” value was “no effect”. For the same compound, in [7], the PAX6 protein levels entry is reported as “no effect” and the NESTIN protein levels result is recorded as “no effect”. Also, the “top concentration for the differentiation experiments” value with undifferentiated hiPSCs [11] is on record as 250 µM. In series [6], the “ReproTracker results LOAEL” value is on record as “N.d. up to 250 µM”.

In the case of `CCCCCCCCc1ccc(CCC(N)(CO)CO)cc1` [Fingolimod], the “ReproTracker results Neural rosette-like cells” value in series [3] is “Negative”. For the same compound, in [8], the “LOAEL compared with respective human therapeutic Cmax” value is recorded as “higher” and the “ReproTracker results LOAEL” value was at most 0.25 µM. Besides, the “ReproTracker results Cardiomyocyte-like cells” value in [9] is given as “Positive”. The “ReproTracker results Hepatocyte-like cells” value in series [10] is listed as “Positive”. The Cmax in series [4] was 3 to 50 nM.

As for `Cc1ncc(C[n+]2csc(CCO)c2C)c(N)n1` [Thiamine], in series [3], the “ReproTracker results Neural rosette-like cells” value is “Negative”. Also, the “ReproTracker results Cardiomyocyte-like cells” value in series [9] is listed as “Negative”. Also, in series [10], the “ReproTracker results Hepatocyte-like cells” value was “Negative”. For the same compound, the Cmax in series [4] is 400 nM. Moreover, the “ReproTracker results LOAEL” value in series [6] is on record as “N.d. up to 1000 µM”.

Take `CN(Cc1cnc2nc(N)nc(N)c2n1)c1ccc(C(=O)N[C@@H](CCC(=O)O)C(=O)O)cc1` [Methotrexate]: the “ReproTracker results Cardiomyocyte-like cells” value in [1] was “Negative”. In addition, the “ReproTracker results Hepatocyte-like cells” value in series [2] is on record as “Negative”. Besides, the “ReproTracker results Neural rosette-like cells” value in [3] was “Negative”. Besides, in series [8], the “LOAEL compared with respective human therapeutic Cmax” value is on record as “equal to or below” and the “ReproTracker results LOAEL” value is “N.d. up to 0.122 µM”. The Cmax in series [4] is 20 to 1100 nM. Moreover, in the series on undifferentiated hiPSCs [5], the “top concentration for the differentiation experiments” value turned out to be 0.1 µM.

`[CH3][Hg][Cl]` [Methylmercury]: the “ReproTracker results Neural rosette-like cells” value in series [3] (lineage call (positive/equivocal/negative)) is “Negative”. In the series with undifferentiated hiPSCs [11], the “top concentration for the differentiation experiments” value is given as 0.3 µM. Besides, in series [9], the “ReproTracker results Cardiomyocyte-like cells” value is “Negative”. In series [10], the “ReproTracker results Hepatocyte-like cells” value is reported as “Negative”. In addition, the Cmax in [4] is 1 to 30 nM. In [6], the “ReproTracker results LOAEL” value is listed as “N.d. up to 0.31 µM”.

For orientation: Cmax means the peak of the concentration-time curve.
